Source: patent publication US20070122392A1, “Propagation of undifferentiated embryonic stem cells in hyaluronic acid hydrogel” (priority 2005, published 2007)

Experiments:
[1] = Hyaluronidase degradation of HA hydrogel and release of hESCs
Protocol: (§1) Cell-gel constructs were cultivated in hESC grwoth medium containing 100 ng/ml bFGF or MEF conditioned media as previously described^1 Briefly, hESCs growth medium was incubated on inactivated MEF for 24 hours and collected and filtrated. bFGF (4 ng/ml) was added before use. Constructs were incubated up to 40 days. To release encapsulated hESCs, HA constructs were incubated for 24 h in hESC growth medium containing 100, 500, 1000 or 2000 U/ml hyaluronidase (Sigma, St. Louis, Mo.). For re-culture, cells were collected, centrifuged, washed three times with PBS to remove any hydrogel residues, re-suspended in growth medium, and cultured on MEF coated dishes using standard methods^22,23. For EB formation, hESCs were cultivated in non-adherent Petri-dishes.

[2] = system: hESCs; experiment: Long-term (24 hours) hyaluronidase treatment of hESC colonies; assay type: cell-based, human; details: growth medium containing hyaluronidase at all concentrations
Protocol: as §1

[3] = system: hESCs; experiment: Karyotyping analysis; assay type: cell-based, human; details: hESCs on MEFs (H9 p22; H13 p25) treated with hyaluronidase 2000 U/ml for 24 h
Protocol: Karyotyping analysis. Cells were prepared and analyzed as previously described and recommended^30. Karyotyping analysis was performed by Dana Faber /Harvard Cancer Research Center, Cytogenetics Laboratory, Cambridge, Mass.

hyaluronidase
degradation of the HA hydrogel ([1]; 2000 U/ml hyaluronidase in growth medium): complete degradation | state of hydrogel and hESCs ([1]; 2000 U/ml hyaluronidase in growth medium, after 18 hr): small particles of hydrogels remained that trapped hESCs | release of hESC colonies from the hydrogel ([1]; 2000 U/ml hyaluronidase in growth medium, after 24 hr): completely released | degradation of HA hydrogels ([1]; hyaluronidase concentrations of <1000 U/ml, 24 hr): only partial degradation | hESC colony morphology and viability [2]: preserved their normal morphology with no apparent loss of viability | karyotype [3]: normal 46XX karyotyping
